Measured values reported in patent US20100278835A1, “NOVEL COMPOUNDS 660” (ASTRAZENECA UK LIMITED, priority 2009, published 2010).
In brackets after ≈: the same amount, converted by molar mass.

Tested on: RSV RSS strain
Assay: ELISA assay of antiviral activity against RSV (reduction in RSV protein expression)
Assay type: cell-based
Details: Hep-2 cells infected with RSV RSS strain, multiplicity of infection 0.02, 3 days; concentration required to inhibit RSV protein expression by 50%
Description: The antiviral activity of these compounds against RSV was determined in an ELISA assay. […] ELISA assays were set up by seeding 96-well plates with 5×10^3 Hep-2 cells per well in 100 μl DMEM containing 10% FBS for 24 h. Compound dilutions were prepared in 0.5% DMSO and 50 μl/well was added to the assay plates, the plates were incubated at 37° C. in 5% CO2 for one hour. Cells were infected with 50 μl/well RSV RSS strain at a multiplicity of infection of 0.02 and were incubated at 37° C. in 5% CO2 for 3 days. Cells were then fixed and permeabilised with 75%/25% methanol acetone and blocked with 2% Marvel™, 0.05% Tween for one hour. Plates were then incubated in the presence of a 1:4000 dilution of […] polyclonal antibody (Millipore, AB1128) followed by a 1:1000 dilution of rabbit anti-goat, horseradish peroxidase (DAKO, PO449) labelled secondary antibody. The plates were developed with O-phenylenediamine in the presence of hydrogen peroxide. The antiviral activity of the compounds is presented as an IC50, the concentration required to inhibit RSV protein expression by 50%.

Molecule	IC50 [µM]
1-[[5-(aminomethyl)-1-isopentyl-benzimidazol-2-yl]methyl]-3-cyclopropyl-4,4-dimethyl-quinazolin-2-one [Example 21]	0.057
CC(C)CCn1c(CN2C(=O)N(CCCN3CCCC3)Cc3ccccc32)nc2cc(CN)ccc21 [Example 17, 1-[[5-(aminomethyl)-1-isopentyl-benzimidazol-2-yl]methyl]-3-(3-pyrrolidin-1-ylpropyl)-4H-quinazolin-2-one]	0.0137
CC(C)CCn1c(CN2C(=O)N(CC3CCCCC3)Cc3ccccc32)nc2cc(CN)ccc21 [Example 19, 1-[[5-(aminomethyl)-1-isopentyl-benzimidazol-2-yl]methyl]-3-(cyclohexylmethyl)-4H-quinazolin-2-one]	2.89
CC(C)CCn1c(CN2C(=O)N(C3CC3)C(C)c3ccccc32)nc2cc(C(=N)N)ccc21 (stereo not drawn) [Example 36, 2-[(3-cyclopropyl-4-methyl-2-oxo-4H-quinazolin-l-yl)methyl]-1-isopentyl-benzimidazole-5-carboxamidine]	0.0084

Same assay, conditions: human respiratory syncytial virus, 72 h; Hep-2 cells infected with RSV RSS strain, multiplicity of infection 0.02, 3 days; concentration required to inhibit RSV protein expression by 50%

Molecule	IC50 [µM]
CC(C)CCn1c(CN2C(=O)N(C)Cc3ccccc32)nc2cc(CN)ccc21 [Example 5, 1-[[5-(aminomethyl)-1-isopentyl-benzimidazol-2-yl]methyl]-3-methyl-4H-quinazolin-2-one]	0.0089
CC(C)CCn1c(CN2C(=O)N(C3CC3)Cc3ccccc32)nc2cc(CN)ccc21 [Example 7, 1-[[5-(Aminomethyl)-1-isopentyl-benzimidazol-2-yl]methyl]-3-cyclopropyl-4H-quinazolin-2-one]	0.0017
COCCN1Cc2ccccc2N(Cc2nc3cc(CN)ccc3n2CCC(C)C)C1=O [Example 13, 1-[[5-(aminomethyl)-1-isopentyl-benzimidazol-2-yl]methyl]-3-(2-methoxyethyl)-4H-quinazolin-2-one]	0.101
CC(C)CCn1c(CN2C(=O)N(CC(C)C)Cc3ccccc32)nc2cc(CN)ccc21 [Example 15, 1-[[5-(aminomethyl)-1-isopentyl-benzimidazol-2-yl]methyl]-3-isobutyl-4H-quinazolin-2-one]	0.0019
CC(C)CCn1c(CN2C(=O)N(CC3CC3)Cc3ccccc32)nc2cc(CN)ccc21 [Example 16, 1-[[5-(aminomethyl)-1-isopentyl-benzimidazol-2-yl]methyl]-3-(cyclopropylmethyl)-4H-quinazolin-2-one]	0.0059
CSCCN1Cc2ccccc2N(Cc2nc3cc(CN)ccc3n2CCC(C)C)C1=O [Example 18, 1-[[5-(aminomethyl)-1-isopentyl-benzimidazol-2-yl]methyl]-3-(2-methylsulfanylethyl)-4H-quinazolin-2-one]	0.004
CC(C)CCn1c(CN2C(=O)N(C3CC3)Cc3c2cccc3C(F)(F)F)nc2cc(CN)ccc21 [Example 22, 1-[[5-(aminomethyl)-1-isopentyl-benzimidazol-2-yl]methyl]-3-cyclopropyl-5-(trifluoromethyl)-4H-quinazolin-2-one]	0.0089
CN1Cc2ccccc2N(Cc2nc3cc(CN)ccc3n2CCCCO)C1=O [Example 24, 1-[[5-(aminomethyl)-1-(4-hydroxybutyl)benzimidazol-2-yl]methyl]-3-methyl-4H-quinazolin-2-one]	0.0032
CC1c2ccccc2N(Cc2nc3cc(CN)ccc3n2CCCC(F)(F)F)C(=O)N1C1CC1 (stereo not shown) [Example 29, 1-[[5-(aminomethyl)-1-(4,4,4-trifluorobutyl)benzimidazol-2-yl]methyl]-3-cyclopropyl-4-methyl-4H-quinazolin-2-one]	0.0038
CC1(C)c2ccccc2N(Cc2nc3cc(CN)ccc3n2CCCC(F)(F)F)C(=O)N1C1CC1 [Example 30, 1-[[5-(aminomethyl)-1-(4,4,4-trifluorobutyl)benzimidazol-2-yl]methyl]-3-cyclopropyl-4,4-dimethyl-quinazolin-2-one]	0.011
CN1Cc2ccccc2N(Cc2nc3cc(CNCCCN)ccc3n2CCCCO)C1=O [Example 34, 1-[[5-[(3-Aminopropylamino)methyl]-1-(4-hydroxybutyl)benzimidazole-2-yl]methyl]-3-methyl-4H-quinazolin-2-one]	0.084
CC(C)CCn1c(CN2C(=O)N(C3CC3)C(C)(C)c3ccccc32)nc2cc(C(=N)N)ccc21 [Example 37, 2-[(3-cyclopropyl-4,4-dimethyl-2-oxo-quinazolin-1-yl)methyl]-1-isopentyl-benzimidazole-5-carboxamidine]	0.042
CC(C)CCn1c(CN2C(=O)N(C3CC3)C(C)c3ccccc32)nc2cc(C(N)=NO)ccc21 (stereo not shown) [Example 39, 2-[(3-cyclopropyl-4-methyl-2-oxo-4H-quinazolin-1-yl)methyl]-N′-hydroxy-1-isopentyl-benzimidazole-5-carboxamidine]	0.4
CC(C)CCn1c(CN2C(=O)N(C3CC3)C(C)(C)c3ccccc32)nc2cc(/C(N)=N/O)ccc21 [Example 40, 2-[(3-cyclopropyl-4,4-dimethyl-2-oxo-quinazolin-1-yl)methyl]-N′-hydroxy-1-isopentyl-benzimidazole-5-carboxamidine]	> 1
N=C(N)c1ccc2c(c1)nc(CN1C(=O)N(C3CC3)Cc3ccccc31)n2CCCC(F)(F)F [Example 41, 2-[(3-cyclopropyl-2-oxo-4H-quinazolin-1-yl)methyl]-1-(4,4,4-trifluorobutyl)benzimidazole-5-carboxamidine]	0.0016
CC1c2ccccc2N(Cc2nc3cc(C(=N)N)ccc3n2CCCC(F)(F)F)C(=O)N1C1CC1 (stereo not shown) [Example 42, 2-[(3-cyclopropyl-4-methyl-2-oxo-4H-quinazolin-1-yl)methyl]-1-(4,4,4-trifluorobutyl)benzimidazole-5-carboxamidine]	0.0118
CC1(C)c2ccccc2N(Cc2nc3cc(C(=N)N)ccc3n2CCCC(F)(F)F)C(=O)N1C1CC1 [Example 43, 2-[(3-cyclopropyl-4,4-dimethyl-2-oxo-quinazolin-1-yl)methyl]-1-(4,4,4-trifluorobutyl)benzimidazole-5-carboxamidine]	0.018
CC1c2ccccc2N(Cc2nc3cc(C(N)=NO)ccc3n2CCCC(F)(F)F)C(=O)N1C1CC1 (stereo not shown) [Example 44, 2-[(3-cyclopropyl-4-methyl-2-oxo-4H-quinazolin-1-yl)methyl]-N′-hydroxy-1-(4,4,4-trifluorobutyl)benzimidazole-5-carboxamidine]	0.229
CC1(C)c2ccccc2N(Cc2nc3cc(/C(N)=N/O)ccc3n2CCCC(F)(F)F)C(=O)N1C1CC1 [Example 45, 2-[(3-cyclopropyl-4,4-dimethyl-2-oxo-quinazolin-1-yl)methyl]-N′-hydroxy-1-(4,4,4-trifluorobutyl)benzimidazole-5-carboxamidine]	> 1

Tested on: not listed separately
Assay: Thermodynamic solubility
Assay type: physicochemical
Details: aqueous buffer, thermodynamic from solid; 0.1M phosphate buffer pH 7.4, 25° C., 24 h, HPLC-UV
Description: A known amount of the test compound was stirred in 0.1M phosphate buffer pH 7.4 at constant temperature (25° C.) for 24 h. The supernatant was then separated from un-dissolved material by double centrifugation, and subsequently analysed and quantified against a standard of known concentration in DMSO using generic HPLC-UV methodology coupled with mass spectral peak identification. Data are also included for a reference quinazolin-2,4-dione derivative disclosed in WO 03/053344.

Molecule	solubility thermodynamic at 24 h [µM]
CC(C)CCn1c(CN2C(=O)N(C)Cc3ccccc32)nc2cc(CN)ccc21 [Example 5, 1-[[5-(aminomethyl)-1-isopentyl-benzimidazol-2-yl]methyl]-3-methyl-4H-quinazolin-2-one]	2290 (≈ 897 µg/mL)
CC(C)CCn1c(CN2C(=O)N(C3CC3)Cc3ccccc32)nc2cc(CN)ccc21 [Example 7, 1-[[5-(Aminomethyl)-1-isopentyl-benzimidazol-2-yl]methyl]-3-cyclopropyl-4H-quinazolin-2-one]	2300 (≈ 960 µg/mL)
COCCN1Cc2ccccc2N(Cc2nc3cc(CN)ccc3n2CCC(C)C)C1=O [Example 13, 1-[[5-(aminomethyl)-1-isopentyl-benzimidazol-2-yl]methyl]-3-(2-methoxyethyl)-4H-quinazolin-2-one]	1560 (≈ 679 µg/mL)
CC(C)CCn1c(Cn2c(=O)n(C)c(=O)c3ccccc32)nc2cc(CN)ccc21 [reference compound]	16 (≈ 6.49 µg/mL)
CC(C)CCn1c(Cn2c(=O)n(C3CC3)c(=O)c3ccccc32)nc2cc(CN)ccc21 [reference compound]	70 (≈ 30.2 µg/mL)
COCCn1c(=O)c2ccccc2n(Cc2nc3cc(CN)ccc3n2CCC(C)C)c1=O [reference compound]	36 (≈ 16.2 µg/mL)
NCc1ccc2c(c1)nc(Cn1c(=O)n(C3CC3)c(=O)c3ccccc31)n2CCCC(F)(F)F [reference compound]	90 (≈ 42.4 µg/mL)

Same assay, conditions: pH 7.4

Molecule	solubility thermodynamic at 24 h [µM]
1-[[5-(aminomethyl)-1-isopentyl-benzimidazol-2-yl]methyl]-3-cyclopropyl-4,4-dimethyl-quinazolin-2-one [Example 21]	1050
